Data: ChEMBL document CHEMBL5728686, “MK2 inhibitors and uses thereof” (2021)
pEC50, pIC50: −log10 of the molar value.

Target: MAP kinase-activated protein kinase 2 (Homo sapiens, UniProt P49137)
Assay: Kinase reactions were started with the addition of 40 μL of MK-2 enzyme and monitored every 71 seconds for 30-240 minutes at λex360/λem485 in a Synergy2, Synergy4 or Synergy H4 plate reader from BioTek (Winooski, Vt.). […] Initial velocity (0 minutes to +30 minutes) from each reaction was estimated from the slope of a plot of relative fluorescence units vs time (minutes) and normalized to the no enzyme and no inhibitor control groups for % Inhibition. The resulting % Inhibition values were then plotted against inhibitor concentration to estimate IC50 from log[Inhibitor] vs Response, Variable Slope model in GraphPad Prism from GraphPad Software (San Diego, Calif.).

Sequence of MAP kinase-activated protein kinase 2 (P49137 whole entry): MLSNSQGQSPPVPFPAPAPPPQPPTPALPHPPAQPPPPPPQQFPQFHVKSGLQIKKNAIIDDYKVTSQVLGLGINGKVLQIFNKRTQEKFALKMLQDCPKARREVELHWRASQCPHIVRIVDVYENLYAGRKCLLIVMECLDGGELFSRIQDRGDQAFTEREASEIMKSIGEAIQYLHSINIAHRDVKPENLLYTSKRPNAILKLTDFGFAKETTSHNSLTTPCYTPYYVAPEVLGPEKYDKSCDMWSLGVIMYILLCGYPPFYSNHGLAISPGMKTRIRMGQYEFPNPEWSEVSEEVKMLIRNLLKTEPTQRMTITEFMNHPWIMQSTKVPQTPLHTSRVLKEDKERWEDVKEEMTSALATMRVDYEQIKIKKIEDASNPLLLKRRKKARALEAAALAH

pEC50 | pIC50 | Compound
> 7.00 | > 7.00 | C=CC(=O)Nc1cc(NC(=O)c2ccc3sc4c(c3c2)NC[C@@H](C)NC4=O)ccc1C1CCN(C)CC1
– | > 7.00 | C=CC(=O)N1CCOc2ccc(-c3cc4c(cn3)CCc3c-4[nH]c4c3C(=O)NCC4)cc21
> 7.00 | > 7.00 | C=CC(=O)Nc1cc(-c2cc3c(ccc4c5c([nH]c43)CCC5=O)cn2)ccc1C
